Measurements reported in US8791132B2, “Compounds and methods for treatment of hypertension” (Medivation Technologies, Inc., priority 2011, dated 2014).

Assays:
[1] = biological target: T1, human recombinant adrenergic α1D receptor (Homo sapiens, UniProt P25100); test: Radioligand binding, adrenergic α1D ([3H]Prazosin)
T1 construct: expressed in transfected cells; host or cells: HEK-293
T1 sequence (P25100 1-572): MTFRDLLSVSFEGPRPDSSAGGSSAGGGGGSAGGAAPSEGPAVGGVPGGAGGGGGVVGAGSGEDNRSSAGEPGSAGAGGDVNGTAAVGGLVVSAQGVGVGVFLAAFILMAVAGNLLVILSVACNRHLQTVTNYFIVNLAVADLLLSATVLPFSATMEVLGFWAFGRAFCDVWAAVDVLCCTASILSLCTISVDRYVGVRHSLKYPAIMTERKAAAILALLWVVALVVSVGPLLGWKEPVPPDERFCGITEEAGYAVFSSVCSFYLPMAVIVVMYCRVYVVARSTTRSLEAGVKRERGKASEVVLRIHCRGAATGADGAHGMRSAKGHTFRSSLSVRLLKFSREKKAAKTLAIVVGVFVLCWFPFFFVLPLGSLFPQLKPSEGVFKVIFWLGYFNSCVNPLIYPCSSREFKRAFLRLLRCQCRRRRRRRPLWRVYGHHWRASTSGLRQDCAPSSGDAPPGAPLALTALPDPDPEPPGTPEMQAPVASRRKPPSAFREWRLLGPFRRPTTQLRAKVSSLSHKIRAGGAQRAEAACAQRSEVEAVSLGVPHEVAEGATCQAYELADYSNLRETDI

[2] = tested on: conscious New Zealand White rabbits; test: Blood pressure in conscious rabbits; assay type: in vivo, rabbit
Method: Methods: Four adult New Zealand White rabbits of both sexes were chosen for these studies. […] To unveil peripheral effects of Compound 3b, two sets of acute studies were conducted in rabbits. […] A single intravenous bolus dose at 3 mg/kg was given and a time-course study was conducted in the second set of studies. Systolic, […], mean and […] blood pressures were recorded in both the studies. […] In a separate set of studies, Clonidine (positive control) was tested where all experimental procedures including dose-regimen were identical to that of the studies with […].

[3] = biological target: T2, human Adrenergic a2A receptor (Homo sapiens, UniProt P08913); test: Inverse agonist activity, GTPg35S binding functional assay (FAST-006G); assay type: biochemical; settings: dose-response, duplicates (FIG. 28)
T2 construct: purchased Euroscreen FAST-006G
T2 sequence (P08913 1-465): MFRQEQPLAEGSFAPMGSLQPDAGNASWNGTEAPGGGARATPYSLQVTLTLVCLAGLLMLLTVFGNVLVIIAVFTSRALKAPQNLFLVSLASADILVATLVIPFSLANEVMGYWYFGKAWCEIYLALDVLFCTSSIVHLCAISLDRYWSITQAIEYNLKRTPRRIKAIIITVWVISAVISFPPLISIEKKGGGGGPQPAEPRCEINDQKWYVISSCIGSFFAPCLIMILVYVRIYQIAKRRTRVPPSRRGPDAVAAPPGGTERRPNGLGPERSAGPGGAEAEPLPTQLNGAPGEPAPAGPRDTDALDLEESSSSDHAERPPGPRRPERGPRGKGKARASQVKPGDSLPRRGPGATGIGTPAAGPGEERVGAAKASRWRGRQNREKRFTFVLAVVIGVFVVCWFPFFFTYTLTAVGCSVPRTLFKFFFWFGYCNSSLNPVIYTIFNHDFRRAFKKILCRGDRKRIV
Method: SPA 35S-GTPgS and Radioligand Binding experiments were conducted with Euroscreen membrane preparations. Compound was tested for inverse agonist activity at the human Adrenergic a2A receptor using GTPg35S binding functional assay (FAST-006G) in dose-response and in duplicates.

Compound | Ki [1] [nM] | dose that produced 80% of the maximum drop in blood pressure ([2]; i.v. cumulative dose-response study) [mg/kg] | heart rate ([2]; i.v. cumulative dose-response study (FIG. 26, fourth panel)) | maximum arterial blood pressure drop ([2]; i.v. cumulative dose-response study, Compound 3b maximum at 10 mg/kg) [mmHg] | duration of arterial blood pressure effect ([2]; single i.v. bolus dose at 3 mg/kg, 3 hours data collection) | drop in arterial blood pressure ([2]; single i.v. bolus dose at 3 mg/kg, time-course study (FIG. 27)) [mmHg] | inverse agonist activity [3]
Cc1ccc2c(c1)c1c(n2CC(O)c2ccncc2)CCN(C)C1 (single isomer, unassigned) [3b] | 258 | 3 | tachycardia | −11.6 | stable from 90 to 180 minutes | ~−6 | 
Cc1ccc2c(c1)c1c(n2CC(O)c2ccncc2)CCN2CCCC12 (single isomer, unassigned) [129d] |  |  |  |  |  |  | showed inverse agonist activity
